From patent publication US6875768B1, “Phthalamide derivatives, intermediates in the production thereof, and agricultural/horticultural insecticides and method for using the same” (Nihon Nohyako Co., Ltd., priority 1999, dated 2005)

How the values were obtained:
[1] = system: Common cutworm (Spodoptera litura); assay type: in vivo; settings: 500 ppm; cabbage leaf immersed about 30 seconds; second-instar larvae; eight days after the inoculation; 25° C.
Excerpt: Insecticidal Effect on Common cutworm (Spodoptera litura)

[2] = system: diamond back moth (Plutella xylostella); assay type: in vivo; settings: 1,000 ppm; Chinese cabbage seedling with eggs immersed about 30 seconds; counted six days after the immersion; 25° C.
Excerpt: Insecticidal effect on diamond back moth (Plutella xylostella)
Adult diamond back moths were released and allowed to oviposit on a Chinese cabbage seedling. […] Six days after the immersion, the hatched insects were counted. […] [formula] Criterion • A - - - Mortality 100% • B - - - Mortality 99-90% • C - - - Mortality 89-80% • D - - - Mortality 79-50%

Compound | insecticidal effect (activity ranking by mortality) [1] | insecticidal effect (activity ranking by mortality) [2]
COc1nc(OC(C(F)(F)F)C(F)(F)F)ccc1NC(=O)c1cccc(I)c1C(=O)NC(C)(C)CSC [Q27-268] | B or higher | B or higher
CSCC(C)(C)NC(=O)c1c(I)cccc1C(=O)Nc1ccc(C(F)(C(F)(F)F)C(F)(F)F)nc1Cl [Q27-234] | B or higher | B or higher
CSCC(C)(C)NC(=O)c1c(I)cccc1C(=O)Nc1ccc(OC(F)(F)C(F)F)nc1Cl [Q27-388] | B or higher | B or higher
Cc1cc(NC(=O)c2cccc([N+](=O)[O-])c2C(=O)NC(C)C)n(C)n1 [Q6-6] | – | B or higher
CC(C)NC(=O)c1c(I)cccc1C(=O)Nc1ccc(OC(F)(F)C(F)F)nc1Cl [Q27-387] | B or higher | B or higher
CCN(CC)C(=O)c1c(I)cccc1C(=O)Nc1nc(-c2ccc(Cl)cc2)cs1 [Q8-53] | – | B or higher
Cc1nc(OC(C(F)(F)F)C(F)(F)F)ccc1NC(=O)c1ccc(Cl)c(Cl)c1C(=O)NC(C)C [Q27-332] | B or higher | B or higher
COc1nc(C(F)(C(F)(F)F)C(F)(F)F)ccc1NC(=O)c1cccc(I)c1C(=O)NC(C)CSC (stereo not drawn) [Q27-241] | B or higher | B or higher
CSCC(C)(C)NC(=O)c1c(I)cccc1C(=O)Nc1ccc(C(F)(C(F)(F)F)C(F)(F)F)nc1SC [Q27-245] | B or higher | B or higher
CSCC(C)(C)NC(=O)c1c(I)cccc1C(=O)Nc1ccc(OC(F)(F)C(F)C(F)(F)F)nc1C (stereo not drawn) [Q27-396] | – | B or higher
CC(C)(CS(C)(=O)=O)NC(=O)c1c(I)cccc1C(=O)Nc1cccnc1C(F)(C(F)(F)F)C(F)(F)F [Q27-239] | B or higher | B or higher
Cc1nc(OC(C(F)(F)F)C(F)(F)F)ccc1NC(=O)c1cccc(C(F)(F)F)c1C(=O)NC(C)(C)C[S+](C)[O-] (stereo not drawn) [Q27-360] | B or higher | B or higher
Cc1cc(C(F)(C(F)(F)F)C(F)(F)F)cnc1NC(=O)c1cccc(I)c1C(=O)NC(C)C [Q26-11] | B or higher | B or higher
CSCC(C)(C)NC(=O)c1c(I)cccc1C(=O)Nc1ccc(NC(=O)C(F)(F)C(F)(F)F)nc1C [Q27-439] | B or higher | B or higher
Cc1sc(I)nc1NC(=O)c1cccc(I)c1C(=O)NC(C)C [Q9-15] | – | B or higher
Cc1csc(NC(=O)c2cccc(Cl)c2C(=O)NC(C)C)n1 [Q8-2] | – | B or higher
CCN(CC)C(=O)c1c(I)cccc1C(=O)Nc1ccc(C(F)(C(F)(F)F)C(F)(F)F)nc1Cl [Q27-231] | B or higher | B or higher
Cc1nc(OC(C(F)(F)F)C(F)(F)F)ccc1NC(=O)c1cccc(C(F)(F)F)c1C(=O)NC(C)C [Q27-354] | B or higher | B or higher
COc1nc(NC(=O)c2cccc(I)c2C(=O)NC(C)C)nc(OC)c1C(F)(C(F)(F)F)C(F)(F)F [Q33-10] | – | B or higher
CCN(CC)C(=O)c1c(I)cccc1C(=O)Nc1cnccn1 [Q34-30] | – | B or higher
Cc1nc(C(F)(C(F)(F)F)C(F)(F)F)ccc1NC(=O)c1cccc(I)c1C(=O)NC(C)(C)C[S+](C)[O-] (stereo not drawn) [Q27-153] | B or higher | B or higher
CSCC(C)NC(=O)c1c(I)cccc1C(=O)Nc1ccc(OC(F)(F)C(F)OC(F)(F)C(F)(F)C(F)(F)F)nc1Cl (stereo not drawn) [Q27-407] | B or higher | B or higher
CC(C)NC(=O)c1cccc(Cl)c1C(=O)Nc1nc(C(F)(F)F)cs1 [Q8-13] | – | B or higher
C[S+]([O-])CC(C)(C)NC(=O)c1c(I)cccc1C(=O)Nc1ccc(C(F)(C(F)(F)F)C(F)(F)F)nc1Cl (stereo not drawn) [Q27-235] | B or higher | B or higher
CC(C)(CS(C)(=O)=O)NC(=O)c1c(I)cccc1C(=O)Nc1ccc(OC(C(F)(F)F)C(F)(F)F)nc1Cl [Q27-267] | B or higher | B or higher
C[S+]([O-])CC(C)(C)NC(=O)c1c(I)cccc1C(=O)Nc1cccnc1C(F)(C(F)(F)F)C(F)(F)F (stereo not drawn) [Q27-238] | B or higher | B or higher
CSCC(C)(C)NC(=O)c1c(I)cccc1C(=O)Nc1ccc(OC(F)(F)C(F)F)nc1C [Q27-384] | B or higher | B or higher
CSCC(C)(C)NC(=O)c1c(C(=O)Nc2ccc(OC(C(F)(F)F)C(F)(F)F)nc2C)cccc1C(F)(F)F [Q27-359] | B or higher | B or higher

Compound | insecticidal effect (activity ranking by mortality) [1] | insecticidal effect (activity ranking by mortality) [2]
CSCC(C)(C)NC(=O)c1c(I)cccc1C(=O)Nc1cnc(C(F)(C(F)(F)F)C(F)(F)F)cc1C [Q27-150] | B or higher | B or higher
Cc1c(NC(=O)c2c(Cl)cccc2C(=O)NC(C)C)noc1-c1ccc(Cl)cc1 [Q4-8] | – | B or higher
CSCC(C)(C)NC(=O)c1c(I)cccc1C(=O)Nc1ccc(C(F)(C(F)(F)F)C(F)(F)F)nc1 [Q27-233] | B or higher | B or higher
COc1nc(C(F)(C(F)(F)F)C(F)(F)F)ccc1NC(=O)c1cccc(I)c1C(=O)NC(C)C [Q27-242] | B or higher | B or higher
CSCC(C)(C)NC(=O)c1c(I)cccc1C(=O)Nc1ccc(OC(F)(F)C(F)C(F)(F)F)nc1C (stereo not drawn) [Q27-393] | – | B or higher
CC(C)NC(=O)c1c(Cl)cccc1C(=O)Nc1cc(-c2ccc(Br)cc2)on1 [Q4-6] | – | B or higher
Cc1nc(C(F)(C(F)(F)F)C(F)(F)F)ccc1NC(=O)c1cccc(I)c1C(=O)NC(C)(C)C[S+](C)[O-] (stereo not drawn) [Q27-244] | – | B or higher
Cc1ccsc1NC(=O)c1c(I)cccc1C(=O)NC(C)C [Q1-42] | – | B or higher
Cc1cc(C(F)(C(F)(F)F)C(F)(F)F)ncc1NC(=O)c1cccc(I)c1C(=O)NC(C)(C)C[S+](C)[O-] (stereo not drawn) [Q27-152] | B or higher | –
CC(C)NC(=O)c1c(Cl)cccc1C(=O)Nc1nc(-c2ccccc2)c(Cl)s1 [Q8-5] | – | B or higher
CCCNC(=O)c1c(Cl)cccc1C(=O)Nc1nc(C)c(Oc2ccccc2)n1C [Q8-11] | – | B or higher
CC(C)NC(=O)c1c(I)cccc1C(=O)Nn1cnnc1 [Q15-1] | – | B or higher
CC(C)NC(=O)c1cccc(Cl)c1C(=O)Nc1nc(-c2ccccc2)cs1 [Q8-14] | – | B or higher
Cc1c(C(F)(F)F)noc1NC(=O)c1cccc(I)c1C(=O)NC(C)C [Q6-8, N^1-(4-methyl-3-trifluoromethyl-isoxazol-5-yl)-N^2-isopropyl-3-iodophthalamide] | – | B or higher
Cc1ncoc1NC(=O)c1cccc(I)c1C(=O)NC(C)C [Q10-7] | – | B or higher
CC(C)NC(=O)c1c(Cl)cccc1C(=O)Nc1nc(C(F)(F)F)cs1 [Q8-3] | – | B or higher
CC(C)NC(=O)c1c(Cl)cccc1C(=O)Nc1ccc(C(F)(C(F)(F)F)C(F)(F)F)nc1Cl [Q27-459] | B or higher | –
Cc1nc(Oc2ccc(C(F)(F)F)cc2)ccc1NC(=O)c1cccc(I)c1C(=O)NC(C)C [Q27-466] | B or higher | –
CC(C)NC(=O)c1cccc(Cl)c1C(=O)Nc1nc(-c2ccccc2)c(Cl)s1 [Q8-15] | – | B or higher
Cc1cc(C(C)(C)C)sc1NC(=O)c1cccc(I)c1C(=O)NC(C)C [Q1-12] | – | B or higher
COc1cc(OC)nc(NC(=O)c2ccccc2C(=O)NC(C)C)n1 [Q33-1] | – | B or higher
Cc1cc(C(C)(C)C)sc1NC(=O)c1c(I)cccc1C(=O)NC(C)C [Q1-41] | – | B or higher
CC(C)NC(=O)c1c(Cl)cccc1C(=O)Nc1nccs1 [Q8-1] | – | B or higher
Cc1c(NC(=O)c2cccc(I)c2C(=O)NC(C)C)noc1C(F)(F)F [Q4-12] | – | B or higher
Cc1c(NC(=O)c2c(I)cccc2C(=O)NC(C)C)noc1C(F)(F)F [Q4-45] | – | B or higher
Cc1nc(OC(F)(F)C(F)C(F)(F)F)ccc1NC(=O)c1cccc(I)c1C(=O)NC(C)C (stereo not drawn) [Q27-391] | – | B or higher
CC(C)NC(=O)c1c(I)cccc1C(=O)Nc1c(Cl)ncnc1Cl [Q32-11] | – | B or higher
